Where “and” joins values, the source holds several entries; their conditions need not be identical. Identical values can stand only once. Toxic doses and inconclusive results are not listed.
Test system: L1210 leukemia ip in BDF1 mice, survival T/C
Assay: NCI In Vivo Anticancer Drug Screen. Data for tumor model L1210 Leukemia (intraperitoneal) in B6D2F1 (BDF1) mice
Conditions: endpoint: mean survival time, higher = longer survival
How it was run: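 Ratio derived from survival: compound-dosed mice over vehicle-dosed mice, all bearing a transplantable tumor.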

[1] = dose: 100.0 mg/kg/injection, schedule: Q04DX002 (ip), vehicle: saline with Tween-80
[2] = dose: 200.0 mg/kg/injection, schedule: Q04DX002 (ip), vehicle: saline with Tween-80
[3] = dose: 100.0 mg/kg/injection, schedule: Q01DX009 (ip), vehicle: Klucel (hydroxypropylcellulose) (HPC)
[4] = dose: 200.0 mg/kg/injection, schedule: Q01DX009 (ip), vehicle: Klucel (hydroxypropylcellulose) (HPC)
[5] = dose: 100.0 mg/kg/injection, schedule: Q01DX001 (ip), vehicle: saline
[6] = dose: 100.0 mg/kg/injection, schedule: Q01DX009 (ip), vehicle: saline with Tween-80
[7] = dose: 100.0 mg/kg/injection, schedule: Q04DX003 (ip), vehicle: saline with Tween-80
[8] = dose: 200.0 mg/kg/injection, schedule: Q01DX001 (ip), vehicle: saline
[9] = dose: 200.0 mg/kg/injection, schedule: Q01DX009 (ip), vehicle: saline with Tween-80
[10] = dose: 200.0 mg/kg/injection, schedule: Q04DX003 (ip), vehicle: saline with Tween-80
[11] = dose: 400.0 mg/kg/injection, schedule: Q01DX001 (ip), vehicle: saline
[12] = dose: 400.0 mg/kg/injection, schedule: Q01DX009 (ip), vehicle: saline with Tween-80
[13] = dose: 400.0 mg/kg/injection, schedule: Q04DX003 (ip), vehicle: saline with Tween-80
[14] = dose: 100.0 mg/kg/injection, schedule: Q01DX009 (ip), vehicle: saline
[15] = dose: 200.0 mg/kg/injection, schedule: Q01DX009 (ip), vehicle: saline
[16] = dose: 400.0 mg/kg/injection, schedule: Q01DX009 (ip), vehicle: saline
[17] = dose: 100.0 mg/kg/injection, schedule: Q04DX003 (ip), vehicle: Klucel (hydroxypropylcellulose) (HPC)
[18] = dose: 200.0 mg/kg/injection, schedule: Q04DX003 (ip), vehicle: Klucel (hydroxypropylcellulose) (HPC)
[19] = dose: 400.0 mg/kg/injection, schedule: Q04DX003 (ip), vehicle: Klucel (hydroxypropylcellulose) (HPC)
[20] = dose: 25.0 mg/kg/injection, schedule: Q04DX003 (ip), vehicle: saline

O=NN(CCCl)C(=O)Nc1ccc(-c2ccc(NC(=O)N(CCCl)N=O)cc2)cc1 was tested, and the T/C (dose: 8.0 mg/kg/injection, schedule: Q01DX001 (ip), vehicle: carboxymethylcellulose (CMC)) was 116 % of control, the T/C (dose: 16.0 mg/kg/injection, schedule: Q01DX001 (ip), vehicle: carboxymethylcellulose (CMC)) was 118 % of control and the T/C (dose: 250.0 mg/kg/injection, schedule: Q01DX001 (ip), vehicle: carboxymethylcellulose (CMC)) was 161 % of control. For the same compound, the T/C (dose: 375.0 mg/kg/injection, schedule: Q01DX001 (ip), vehicle: carboxymethylcellulose (CMC)) was 163 % of control, the T/C (dose: 500.0 mg/kg/injection, schedule: Q01DX001 (ip), vehicle: carboxymethylcellulose (CMC)) was 190 % of control and the T/C (dose: 750.0 mg/kg/injection, schedule: Q01DX001 (ip), vehicle: carboxymethylcellulose (CMC)) was 229 % of control. For the same compound, the T/C (dose: 1000.0 mg/kg/injection, schedule: Q01DX001 (ip), vehicle: carboxymethylcellulose (CMC)) was 229 % of control, the T/C (dose: 1500.0 mg/kg/injection, schedule: Q01DX001 (ip), vehicle: carboxymethylcellulose (CMC)) was 232 % of control and the T/C (dose: 2000.0 mg/kg/injection, schedule: Q01DX001 (ip), vehicle: carboxymethylcellulose (CMC)) was 168 % of control. For the same compound, the T/C (dose: 2500.0 mg/kg/injection, schedule: Q01DX001 (ip), vehicle: carboxymethylcellulose (CMC)) was 223 % of control.
In the case of CCOc1nc(N)nc(N)c1-c1ccc(Cl)cc1, the T/C [1] is reported as 92 % of control and the T/C [2] is reported as 96 % of control.
With COc1cc(OC)c(NC(=O)/C=C/c2ccccc2)cc1Cl the T/C [3] was 92 % of control, the T/C [4] was 100 % of control and the T/C (dose: 400.0 mg/kg/injection, schedule: Q01DX009 (ip), vehicle: Klucel (hydroxypropylcellulose) (HPC)) was 95 % of control.
For CNC(=O)N(C)Cc1ccco1, the T/C (dose: 50.0 mg/kg/injection, schedule: Q01DX009 (ip), vehicle: Klucel (hydroxypropylcellulose) (HPC)) was 91 % of control, the T/C [3] was 102 % of control and the T/C [4] was 101 % of control.
For COC1CC(O)C(O)C(C)O1 (stereo not given), the T/C [5] was 93 % of control, the T/C [6] was 100 % of control and the T/C [7] was 91 % of control. For the same compound, the T/C [8] was 96 % of control, the T/C [9] was 91 % of control and the T/C [10] was 108 % of control. The T/C [11] was 98 % of control, the T/C [12] was 89 % of control and the T/C [13] was 100 % of control.
In the case of CC1=Nc2ccccc2N=C(C)C1, the T/C [5] is reported as 107 % of control, the T/C [7] is reported as 93 % of control and the T/C [8] is reported as 102 % of control. For the same compound, the T/C [10] was 96 % of control.
In the case of Cc1ccc(S(=O)(=O)NCCC(=O)O)cc1, the T/C [5] is reported as 93 % of control, the T/C [8] is reported as 98 % of control and the T/C [11] is reported as 98 % of control.
In the case of CC1=NN(c2ccccc2)C(=O)C1N=Nc1ccc(S(=O)(=O)Nc2nnc(C)s2)cc1 (stereo not given), the T/C (dose: 100.0 mg/kg/injection, schedule: Q01DX001 (ip), vehicle: carboxymethylcellulose (CMC)) is reported as 98 % of control, the T/C (dose: 200.0 mg/kg/injection, schedule: Q01DX001 (ip), vehicle: carboxymethylcellulose (CMC)) is reported as 106 % of control and the T/C (dose: 400.0 mg/kg/injection, schedule: Q01DX001 (ip), vehicle: carboxymethylcellulose (CMC)) is reported as 93 % of control.
For CSc1nc(Cl)cc(N2CC2C)n1 (stereo not given), the T/C (dose: 25.0 mg/kg/injection, schedule: Q01DX Z (ip), vehicle: methylcellulose (MC)) was 96 % of control.
CCCCCOCC was tested, and the T/C [5] was 103 % of control, the T/C [14] was 96 % of control and the T/C [8] was 105 % of control. The T/C [15] was 101 % of control, the T/C [11] was 103 % of control and the T/C [16] was 101 % of control.
With CCOC(=O)/C(C)=C\c1c(C)[nH]c(=O)[nH]c1=O the T/C [14] was 87 % of control, the T/C (dose: 100.0 mg/kg/injection, schedule: Q04DX003 (ip), vehicle: saline) was 97 % of control and the T/C [15] was 94 % of control. The T/C (dose: 200.0 mg/kg/injection, schedule: Q04DX003 (ip), vehicle: saline) was 94 % of control, the T/C [16] was 86 % of control and the T/C (dose: 400.0 mg/kg/injection, schedule: Q04DX003 (ip), vehicle: saline) was 92 % of control.
For CC(=O)OC12C3CCCC1CCCC2CCC3 (stereo not given), the T/C [17] was 109 % of control, the T/C [18] was 93 % of control and the T/C [19] was 93 % of control.
CC(C)N(C)C(C1=CC(C)(C)c2ccccc2C1=O)c1ccccc1 (stereo not given) was tested, and the T/C [17] was 108 % of control, the T/C [18] was 101 % of control and the T/C [19] was 101 % of control.
With O=C(O)/C=C(\F)C(=O)O the T/C (dose: 50.0 mg/kg/injection, schedule: Q01DX005 (ip), vehicle: water) was 109 % of control and 91 % of control, the T/C (dose: 100.0 mg/kg/injection, schedule: Q01DX005 (ip), vehicle: water) was 96 % of control and 98 % of control and the T/C (dose: 200.0 mg/kg/injection, schedule: Q01DX005 (ip), vehicle: water) was 107 % of control and 105 % of control.
In the case of Nc1nc2nc3c(nc2c(=O)[nH]1)CN(c1ccc(C(=O)NC(CCC(=O)O)C(=O)O)cc1)C3=O (stereo not given), the T/C [6] is reported as 93 % of control and the T/C [9] is reported as 95 % of control.
With CC#CCCC(=O)OCCCCC the T/C [1] was 97 % of control and the T/C [2] was 102 % of control.
In the case of CCCCCc1ccc(/C(C)=N/NC(=O)c2ccc[n+](C)c2)cc1, the T/C (dose: 6.25 mg/kg/injection, schedule: Q04DX003 (ip), vehicle: saline) is reported as 101 % of control, the T/C (dose: 12.5 mg/kg/injection, schedule: Q04DX003 (ip), vehicle: saline) is reported as 95 % of control and the T/C (dose: 25.0 mg/kg/injection, schedule: Q04DX003 (ip), vehicle: saline with Tween-80) is reported as 98 % of control. For the same compound, the T/C [20] was 95 % of control.
With CC(=O)CCC(=O)CCC(C)=O the T/C (dose: 100.0 mg/kg/injection, schedule: Q04DX002 (ip), vehicle: saline) was 93 % of control, the T/C (dose: 200.0 mg/kg/injection, schedule: Q04DX002 (ip), vehicle: saline) was 101 % of control and the T/C (dose: 400.0 mg/kg/injection, schedule: Q04DX002 (ip), vehicle: saline) was 101 % of control.
For CCC1=C(C)CC2c3cc(OC)c(OC)cc3CCN2C1 (stereo not given), the T/C (dose: 4.0 mg/kg/injection, schedule: Q04DX003 (ip), vehicle: water) was 110 % of control, the T/C (dose: 8.0 mg/kg/injection, schedule: Q04DX003 (ip), vehicle: water) was 103 % of control and the T/C (dose: 16.0 mg/kg/injection, schedule: Q04DX003 (ip), vehicle: water) was 104 % of control. The T/C (dose: 32.0 mg/kg/injection, schedule: Q04DX003 (ip), vehicle: water) was 108 % of control, the T/C (dose: 64.0 mg/kg/injection, schedule: Q04DX003 (ip), vehicle: water) was 106 % of control and the T/C (dose: 75.0 mg/kg/injection, schedule: Q01DX001 (ip), vehicle: saline) was 103 % of control. For the same compound, the T/C (dose: 150.0 mg/kg/injection, schedule: Q01DX001 (ip), vehicle: saline) was 94 % of control and the T/C (dose: 300.0 mg/kg/injection, schedule: Q01DX001 (ip), vehicle: saline) was 101 % of control.
In the case of CCCCCCCCCCCC(C)NCc1ccccc1 (stereo not given), the T/C (dose: 6.25 mg/kg/injection, schedule: Q01DX009 (ip), vehicle: saline with Tween-80) is reported as 89 % of control, the T/C (dose: 12.5 mg/kg/injection, schedule: Q01DX009 (ip), vehicle: saline with Tween-80) is reported as 89 % of control and the T/C (dose: 25.0 mg/kg/injection, schedule: Q01DX009 (ip), vehicle: saline with Tween-80) is reported as 97 % of control. The T/C [20] was 94 % of control and the T/C (dose: 35.0 mg/kg/injection, schedule: Q01DX009 (ip), vehicle: acetone) was 92 % of control.
In the case of C[C@H]1[C@H](O)[C@H]2[C@@H](CCC3=CC(=O)CC[C@@]32C)[C@@H]2CC[C@H](O)[C@@]12C, the T/C (dose: 50.0 mg/kg/injection, schedule: Q01DX001 (sc), vehicle: steriod suspending solution) is reported as 102 % of control, the T/C (dose: 100.0 mg/kg/injection, schedule: Q01DX001 (sc), vehicle: steriod suspending solution) is reported as 102 % of control and the T/C (dose: 200.0 mg/kg/injection, schedule: Q01DX001 (sc), vehicle: steriod suspending solution) is reported as 102 % of control. For the same compound, the T/C (dose: 400.0 mg/kg/injection, schedule: Q01DX001 (sc), vehicle: steriod suspending solution) was 96 % of control.
Nc1cc2c3ccccc3ncc2c2ccccc12 was tested, and the T/C [6] was 106 % of control, the T/C [7] was 104 % of control and the T/C [9] was 108 % of control. For the same compound, the T/C [10] was 94 % of control, the T/C [12] was 108 % of control and the T/C [13] was 105 % of control.
With Oc1c(I)cc(I)c2cccnc12 the T/C (dose: 100.0 mg/kg/injection, schedule: Q01DX001 (ip), vehicle: Klucel (hydroxypropylcellulose) (HPC)) was 102 % of control and the T/C (dose: 200.0 mg/kg/injection, schedule: Q01DX001 (ip), vehicle: Klucel (hydroxypropylcellulose) (HPC)) was 106 % of control.

Source: PubChem BioAssay AID248 (DTP/NCI, 2004)
